pKi: −log10 of the molar value. Each block holds one compound with its values, some of them ahead of it. Calls of active or inactive are those of the source. The calls are words filed in the database; no cut-off is given here. Positions of bridges follow the written chain, without caps; N, C: chain ends. Non-standard residues stand in square brackets, D forms with d. Residues, ends and D or L forms follow the SMILES beside them. dPhe(4-Cl) = N[C@H](Cc1ccc(Cl)cc1)C(=O)O; d2Nal = N[C@H](Cc1ccc2ccccc2c1)C(=O)O; d3Pal = N[C@H](Cc1cccnc1)C(=O)O; Dab = NCC[C@H](N)C(=O)O; Dap = NC[C@H](N)C(=O)O
Experiments:
Rattus norvegicus [1] = test: Evaluated for the ovulation effects in the rat by administering the drug at the doses (5 ug); 3/3; assay type: functional, organism-based
Rattus norvegicus [2] = test: Evaluated for the ovulation effects in the rat by administering the drug at the doses (25 ug); 0/5; assay type: functional, organism-based
[3] = molecular target: T1, Gonadotropin-releasing hormone receptor (Rattus norvegicus, UniProt P30969); test: Competitive radioligand binding assay, in human HEK293 cells stably transfected with the rat Gonadotropin-releasing hormone receptor; assay type: cell-based
T1 sequence (P30969 whole entry): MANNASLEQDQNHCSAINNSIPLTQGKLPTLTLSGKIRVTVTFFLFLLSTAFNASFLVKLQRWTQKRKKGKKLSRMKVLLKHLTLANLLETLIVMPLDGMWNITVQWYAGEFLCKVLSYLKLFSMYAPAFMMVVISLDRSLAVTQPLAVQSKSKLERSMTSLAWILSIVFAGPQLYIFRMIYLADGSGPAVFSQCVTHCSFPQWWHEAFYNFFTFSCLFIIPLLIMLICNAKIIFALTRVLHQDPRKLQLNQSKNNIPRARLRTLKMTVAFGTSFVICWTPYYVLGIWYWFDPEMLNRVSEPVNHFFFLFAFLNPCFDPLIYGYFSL

Rattus norvegicus [4] = test: Evaluated for the ovulation effects in the rat by administering the drug at the doses (10 ug); 4/6; assay type: functional, organism-based
Rattus norvegicus [5] = test: Evaluated for the ovulation effects in the rat by administering the drug at the doses (10 ug); 5/5; assay type: functional, organism-based
Rattus norvegicus [6] = test: Evaluated for the ovulation effects in the rat by administering the drug at the doses (25 ug); 0/4; assay type: functional, organism-based
Rattus norvegicus [7] = test: Evaluated for the ovulation effects in the rat by administering the drug at the doses (25 ug); 0/3; assay type: functional, organism-based
Rattus norvegicus [8] = test: Evaluated for the ovulation effects in the rat by administering the drug at the doses (10 ug); 1/6; assay type: functional, organism-based
Rattus norvegicus [9] = test: Evaluated for the ovulation effects in the rat by administering the drug at the doses (2.5 ug); 14/16; assay type: functional, organism-based
Rattus norvegicus [10] = test: Evaluated for the ovulation effects in the rat by administering the drug at the doses (25 ug); 0/8; assay type: functional, organism-based
Rattus norvegicus [11] = test: Evaluated for the ovulation effects in the rat by administering the drug at the doses (25 ug); 4/5; assay type: functional, organism-based
Rattus norvegicus [12] = test: Evaluated for the ovulation effects in the rat by administering the drug at the doses (50 ug); 0/7; assay type: functional, organism-based

Compound: CC(=O)N[C@H](Cc1ccc2ccccc2c1)C(=O)N[C@H](Cc1ccc(Cl)cc1)C(=O)N[C@H](Cc1cccnc1)C(=O)N[C@H]1CC(=O)NC[C@@H](C(N)=O)NC(=O)[C@@H]2CCCN2C(=O)[C@@H]2CCNC(=O)CNC(=O)C[C@H](NC1=O)C(=O)N[C@H](CCCN=C(N)N)C(=O)N[C@@H](CC(C)C)C(=O)N2
Activity (Rattus norvegicus [1]): inactive
Activity (Rattus norvegicus [2]): Active
pKi [3]: 9.46
Activity (Rattus norvegicus [4]): Weak activity

Compound: CC[C@H](NC(C)=O)C(=O)N[C@@H](Cc1ccc(Cl)cc1)C(=O)N[C@@H](Cc1c[nH]c2ccccc12)C(=O)N[C@@H](CC(=O)O)C(=O)N[C@@H]1CCC(=O)NCCCC[C@@H](C(=O)N2CCC[C@@H]2C(=O)N[C@@H](C)C(N)=O)NC(=O)[C@H](CC(C)C)NC(=O)[C@@H](CCCN=C(N)N)NC1=O (stereo in doubt; 13)
Activity (Rattus norvegicus [11]): Weak activity
Activity (Rattus norvegicus [12]): Active

The next lines start with results.

pKi [3]: 9.70
Compound: CC(=O)N[C@H](Cc1ccc2ccccc2c1)C(=O)N[C@H](Cc1ccc(Cl)cc1)C(=O)N[C@H](Cc1cccnc1)C(=O)N[C@H]1CC(=O)NC[C@@H](C(N)=O)NC(=O)[C@@H]2CCCN2C(=O)[C@@H]2CCNC(=O)[C@H](Cc3ccccc3)NC(=O)CC[C@H](NC1=O)C(=O)N[C@H](CCCNC(N)=O)C(=O)N[C@@H](CC(C)C)C(=O)N2
Activity (Rattus norvegicus [5]): inactive
Activity (Rattus norvegicus [6]): Active

pKi [3]: 9.80
Compound: CC(=O)N[C@H](Cc1ccc2ccccc2c1)C(=O)N[C@H](Cc1ccc(Cl)cc1)C(=O)N[C@H](Cc1cccnc1)C(=O)N[C@H]1CC(=O)NC[C@@H](C(N)=O)NC(=O)[C@@H]2CCCN2C(=O)[C@@H]2CCNC(=O)CNC(=O)CC[C@H](NC1=O)C(=O)N[C@H](CCCN=C(N)N)C(=O)N[C@@H](CC(C)C)C(=O)N2 (Ac-[d2Nal][dPhe(4-Cl)][d3Pal]DE[dR]L[Dab]P[Dap]-NH2; lactam 4-10; linker 5-8 via G)
Activity (Rattus norvegicus [7]): Active
Activity (Rattus norvegicus [8]): Weak activity
Activity (Rattus norvegicus [9]): Weak activity

pKi [3]: 9.57
Compound: CC(=O)N[C@H](Cc1ccc2ccccc2c1)C(=O)N[C@H](Cc1ccc(Cl)cc1)C(=O)N[C@H](Cc1cccnc1)C(=O)N[C@H]1CC(=O)NC[C@@H](C(N)=O)NC(=O)[C@@H]2CCCN2C(=O)[C@@H]2CCCNC(=O)[C@H](Cc3ccccc3)NC(=O)CC[C@H](NC1=O)C(=O)N[C@H](CCCN=C(N)N)C(=O)N[C@@H](CC(C)C)C(=O)N2
Activity (Rattus norvegicus [5]): inactive
Activity (Rattus norvegicus [10]): Active
